In patent publication US12187684B2, “Benzimidazole derivatives as modulators of retinoid-related orphan receptor gamma (RORγ) and pharmaceutical use thereof” (Jiangsu Hengrui Medicine Co., Ltd., priority 2018, dated 2025) one finds IC50 data, which are given here for 21 molecules.

Experiment [1] deals with IL-17 production, human PBMC cells. In words: IL-17 production assay using human PBMC. The experiment is classed as cell-based. The following applies: human PBMC stimulated by cytostim for 3 days, IL-17 ELISA of supernatant. An excerpt:
Test Example 2. IL-17 Production Assay Using Human PBMC
• 1. Human PBMC cells (Cat No. 70025.1, Zenbio) • 2. Lymphocyte medium (Cat No. LYMPH-1, Zenbio) • 3. TexMACS (Cat No. 130-097-196, Miltenyi) • 4. Cytostim-human (Cat No. 1130-092-173, Miltenyi) • 5. Human IL-17 ELISA (Cat No. D1700, R&D systems) • 6. Tecan Infinite M1000 plate reader (Tecan)
Experimental Procedure for IL-17 Production Assay
Cryopreserved peripheral blood human mononuclear cells (PBMCs) were rapidly thawed in warmed Lymphocyte media, and centrifuged cell suspension at 1000 rpm for 10 minutes. The supernatant was removed, and the cell pellets were gently resuspended in TexMACS media.
Human PBMC cells in TexMACS media were plated at 1×10^5 each well in triplicate. The test compounds at various concentrations or vehicle control (<0.5% DMSO) were added into cell culture. The cells were stimulated by cytostim (10 μL/mL) for 3 days in a humidified, 5% CO2 incubator at 37° C.
After incubation, the cell culture supernatant was harvested, and then removed particulates by centrifugation. Human IL-17 in the supernatant was measured using human IL-17 ELISA kit according to the manufacturer's protocol. IC50 values were determined using GraphPad Prism by plotting the compounds concentration versus percent inhibition.
For orientation: ELISA stands for enzyme-linked immunosorbent assay.

For experiment [2], the target named is T1, RORγ LBD-GST tagged (Homo sapiens, UniProt P51449).
T1 construct: RORγ LBD-GST tagged (Cat No. RORC-114H, Creative Biomart); purchased Creative Biomart RORC-114H
T1 sequence (P51449 269-508 limits assumed): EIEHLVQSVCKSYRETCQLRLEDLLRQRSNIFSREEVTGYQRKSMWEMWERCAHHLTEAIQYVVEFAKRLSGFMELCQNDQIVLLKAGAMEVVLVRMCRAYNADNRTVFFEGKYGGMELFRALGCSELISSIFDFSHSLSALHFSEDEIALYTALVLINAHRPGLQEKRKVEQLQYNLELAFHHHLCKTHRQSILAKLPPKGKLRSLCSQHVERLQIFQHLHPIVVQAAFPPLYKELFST
In words: LanthaScreen TR-FRET RORγ coactivator assay. Format: biochemical. As to conditions: Fluorescein-D22 coactivator peptide, 1 hour room temperature. The essentials: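 GST-tagged RORγ LBD (25 ng/reaction) was incubated in coregulator buffer D with 5 mM DTT and compound (top 3 μM, 7-fold steps, 7 doses), then with a mix containing 0.6 μM fluorescein-D22 peptide and 8 nM Tb anti-GST antibody. After 1 h at room temperature in the dark, 520/495 nm TR-FRET was read. IC50 came from log concentration versus percent inhibition.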
For orientation: Time-resolved FRET reads energy transfer from a long-lived donor to a nearby acceptor.

SMILES strings stand for the structures.

Broadly, the IC50 is the point on the concentration scale where inhibition reaches its midpoint. Higher therefore signals weaker potency. As for `CCS(=O)(=O)c1ccc(C(O)c2nc3c(Cl)c(-c4ccccc4OC(F)F)c(Cl)cc3[nH]2)cc1` (stereo not drawn) [Example 30, (4,6-dichloro-5-(2-(difluoromethoxy)phenyl)-1H-benzo[d]imidazol-2-yl)(4-(ethylsulfonyl)phenyl)methanol], the concentration for half-maximal inhibition (IC50) in experiment [1] (Homo sapiens, PBMC, 72 h) was determined as 0.007 µM; in experiment [2], 0.062 µM.

As for `O=S(=O)(CC1CC1)c1ccc(C(CCO)c2nc3cc(Cl)c(N4CCC(F)(F)CC4)c(Cl)c3[nH]2)cc1` (stereo not drawn) [Example 157, 3-(4-((cyclopropylmethyl)sulfonyl)phenyl)-3-(5,7-dichloro-6-(4,4-difluoropiperidin-1-yl)-1H-benzo[d]imidazol-2-yl)propan-1-ol], the IC50 in experiment [1] (Homo sapiens, PBMC, 72 h) worked out at 0.022 µM; in experiment [2] it was 0.007 µM.

For `CCOc1ccccc1-c1c(Cl)cc2nc(C(CO)c3ccc(S(=O)(=O)CC4CC4)cc3)[nH]c2c1Cl` (stereo not drawn) [Example 137, 2-(4-((cyclopropylmethyl)sulfonyl)phenyl)-2-(5,7-dichloro-6-(2-ethoxyphenyl)-1H-benzo[d]imidazol-2-yl)ethanol], the IC50 in experiment [1] (Homo sapiens, PBMC, 72 h) stood at 0.004 µM; in experiment [2] it was 0.013 µM.

As for `O=S(=O)(CC1CC1)c1ccc(Cc2nc3c(Cl)c(-c4ccccc4OC(F)F)c(Cl)cc3[nH]2)cc1` [Example 72, 4,6-dichloro-2-(4-((cyclopropylmethyl)sulfonyl)benzyl)-5-(2-(difluoromethoxy)phenyl)-1H-benzo[d]imidazole], the concentration for half-maximal inhibition (IC50) amounted to 0.003 µM in experiment [1] (Homo sapiens, PBMC, 72 h) and 0.006 µM in experiment [2].

With `O=S(=O)(CC1CC1)c1ccc(C(CO)c2nc3c(Cl)c(-c4ccccc4C(F)(F)F)c(Cl)cc3[nH]2)cc1` (stereo not drawn) [Example 70, 2-(4-((cyclopropylmethyl)sulfonyl)phenyl)-2-(4,6-dichloro-5-(2-(trifluoromethyl)phenyl)-1H-benzo[d]imidazol-2-yl)ethanol], the IC50 in experiment [1] (Homo sapiens, PBMC, 72 h) was determined as 0.006 µM; in experiment [2], 0.014 µM.

Turning to `CCS(=O)(=O)c1ccc(C(O)c2nc3c(Cl)c(-c4ccccc4CCC(F)(F)F)c(Cl)cc3[nH]2)cc1` (stereo not drawn) [Example 35, (4,6-dichloro-5-(2-(3,3,3-trifluoropropyl)phenyl)-1H-benzo[d]imidazol-2-yl)(4-(ethylsulfonyl)phenyl)methanol], the concentration for half-maximal inhibition (IC50) worked out at 0.008 µM in experiment [1] (Homo sapiens, PBMC, 72 h) and 0.061 µM in experiment [2].

`CCS(=O)(=O)c1ccc(C(O)c2nc3c(Cl)c(-c4ccccc4OCCOC)c(Cl)cc3[nH]2)cc1` (stereo not drawn) [Example 21, (4,6-dichloro-5-(2-(2-methoxyethoxy)phenyl)-1H-benzo[d]imidazol-2-yl)(4-(ethylsulfonyl)phenyl)methanol]: the IC50 in experiment [1] (Homo sapiens, PBMC, 72 h) came out at 0.453 µM; in experiment [2], 0.083 µM.

Consider `NC(=O)CC(c1ccc(S(=O)(=O)CC2CC2)cc1)c1nc2cc(-c3ccccc3OC(F)F)c(Cl)cc2[nH]1` (single isomer, unassigned) [the longer retention time of 152 and 153, 3-(6-chloro-5-(2-(difluoromethoxy)phenyl)-1H-benzo[d]imidazol-2-yl)-3-(4-((cyclopropylmethyl)sulfonyl)phenyl)propanamide], for which the half-maximal inhibitory concentration (IC50) in experiment [1] was 0.01 µM; in experiment [2], 0.013 µM.

`CC(=O)NCC(c1ccc(S(=O)(=O)CC2CC2)cc1)c1nc2cc(Cl)c(-c3ccccc3OC(F)F)cc2[nH]1` (stereo not drawn) [Example 129, N-(2-(5-chloro-6-(2-(difluoromethoxy)phenyl)-1H-benzo[d]imidazol-2-yl)-2-(4-((cyclopropylmethyl)sulfonyl)phenyl)ethyl)acetamide]: the IC50 worked out at 0.242 µM in experiment [1] (Homo sapiens, PBMC, 72 h) and 0.014 µM in experiment [2].

On to `CCS(=O)(=O)c1ccc(C(CO)c2nc3cc(-c4ccccc4OC(F)(F)F)c(Cl)cc3[nH]2)cc1` (stereo not drawn) [Example 119, 2-(6-chloro-5-(2-(trifluoromethoxy)phenyl)-1H-benzo[d]imidazol-2-yl)-2-(4-(ethylsulfonyl)phenyl)ethanol], for which the IC50 came to 0.124 µM in experiment [1] (Homo sapiens, PBMC, 72 h) and 0.034 µM in experiment [2].

As for `CC(C)Oc1ccccc1-c1cc2nc(C(CC(N)=O)c3ccc(S(=O)(=O)CC4CC4)cc3)[nH]c2cc1Cl` (stereo not drawn) [Example 143, 3-(5-chloro-6-(2-isopropoxyphenyl)-1H-benzo[d]imidazol-2-yl)-3-(4-((cyclopropylmethyl)sulfonyl)phenyl)propanamide], the IC50 in experiment [1] (Homo sapiens, PBMC, 72 h) came to 0.027 µM; in experiment [2] it was 0.01 µM.

Turning to `O=S(=O)(CC1CC1)c1ccc(C(CO)c2nc3c(Cl)c(-c4ccccc4OC(F)(F)F)c(Cl)cc3[nH]2)cc1` (stereo not drawn) [Example 67, 2-(4-((cyclopropylmethyl)sulfonyl)phenyl)-2-(4,6-dichloro-5-(2-(trifluoromethoxy)phenyl)-1H-benzo[d]imidazol-2-yl)ethanol], the IC50 came to 0.002 µM in experiment [1] (Homo sapiens, PBMC, 72 h) and 0.002 µM in experiment [2].

Take `CCS(=O)(=O)c1ccc(C(CO)c2nc3cc(Cl)c(N4CCC(F)(F)CC4)c(Cl)c3[nH]2)cc1` (stereo not drawn) [Example 126, 2-(5,7-dichloro-6-(4,4-difluoropiperidin-1-yl)-1H-benzo[d]imidazol-2-yl)-2-(4-(ethylsulfonyl)phenyl)ethanol]: the IC50 in experiment [1] (Homo sapiens, PBMC, 72 h) was 0.008 µM; in experiment [2], 0.135 µM.

With `CCS(=O)(=O)c1ccc(C(O)c2nc3c(Cl)c(-c4ccccc4OCC(F)(F)F)c(Cl)cc3[nH]2)cc1` (stereo not drawn) [Example 33, (4,6-dichloro-5-(2-(2,2,2-trifluoroethoxy)phenyl)-1H-benzo[d]imidazol-2-yl)(4-(ethylsulfonyl)phenyl)methanol], the IC50 in experiment [1] (Homo sapiens, PBMC, 72 h) was 0.015 µM; in experiment [2], 0.031 µM.

On to `O=S(=O)(NC1CC1)c1ccc(C(CO)c2nc3c(Cl)c(-c4ccccc4OC(F)(F)F)c(Cl)cc3[nH]2)cc1` (stereo not drawn) [Example 123, N-cyclopropyl-4-(1-(4,6-dichloro-5-(2-(trifluoromethoxy)phenyl)-1H-benzo[d]imidazol-2-yl)-2-hydroxyethyl)benzenesulfonamide], for which the 50% inhibitory concentration (IC50) in experiment [1] (Homo sapiens, PBMC, 72 h) is 0.058 µM; in experiment [2], 0.03 µM.

As for `CCS(=O)(=O)c1ccc(C(CO)c2nc3c(Cl)c(-c4ccccc4OCCOC)c(Cl)cc3[nH]2)cc1` (stereo not drawn) [Example 20, 2-(4,6-dichloro-5-(2-(2-methoxyethoxy)phenyl)-1H-benzo[d]imidazol-2-yl)-2-(4-(ethylsulfonyl)phenyl)ethanol], the IC50 in experiment [1] (Homo sapiens, PBMC, 72 h) is 0.056 µM; in experiment [2] it was 0.013 µM.

Take `CC(=O)NCCC(c1ccc(S(=O)(=O)CC2CC2)cc1)c1nc2cc(-c3ccccc3OC(F)F)c(Cl)cc2[nH]1` (single isomer, unassigned) [166 or 167 made from Int-164A, (R or S)—N-(3-(6-chloro-5-(2-(difluoromethoxy)phenyl)-1H-benzo[d]imidazol-2-yl)-3-(4-((cyclopropylmethyl)sulfonyl)phenyl)propyl)acetamide]: the IC50 turned out to be 0.066 µM in experiment [1] (Homo sapiens, PBMC, 72 h) and 0.01 µM in experiment [2].

`CC(C)Oc1ccccc1-c1c(Cl)cc2nc(C(CO)c3ccc(S(=O)(=O)CC4CC4)cc3)[nH]c2c1Cl` (stereo not drawn) [Example 134, 2-(4-((cyclopropylmethyl)sulfonyl)phenyl)-2-(5,7-dichloro-6-(2-isopropoxyphenyl)-1H-benzo[d]imidazol-2-yl)ethanol]: the IC50 in experiment [1] (Homo sapiens, PBMC, 72 h) was 0.003 µM; in experiment [2] it was 0.006 µM.

On to `NC(=O)CC(c1ccc(S(=O)(=O)CC2CC2)cc1)c1nc2cc(Cl)c(N3CCC(F)(F)CC3)c(Cl)c2[nH]1` (single isomer, unassigned) [the longer retention time of 162 and 163, 3-(4-((cyclopropylmethyl)sulfonyl)phenyl)-3-(5,7-dichloro-6-(4,4-difluoropiperidin-1-yl)-1H-benzo[d]imidazol-2-yl)propanamide], for which the IC50 was 0.029 µM in experiment [1] and 0.31 µM in experiment [2].

Regarding `CCS(=O)(=O)c1ccc(C(CO)c2nc3c(Cl)c(-c4ccccc4OC)c(Cl)cc3[nH]2)cc1` (stereo not drawn) [Example 6, 2-(4,6-dichloro-5-(2-methoxyphenyl)-1H-benzo[d]imidazol-2-yl)-2-(4-(ethylsulfonyl)phenyl)ethanol], the IC50 in experiment [1] (Homo sapiens, PBMC, 72 h) worked out at 0.022 µM; in experiment [2] it was 0.003 µM.

Turning to `O=S(=O)(CC1CC1)c1ccc(C(CCN2CCOCC2)c2nc3cc(-c4ccccc4OC(F)F)c(Cl)cc3[nH]2)cc1` (single isomer, unassigned) [164 or 165 made from Int-164A, (R or S)-4-(3-(6-chloro-5-(2-(difluoromethoxy)phenyl)-1H-benzo[d]imidazol-2-yl)-3-(4-((cyclopropylmethyl)sulfonyl)phenyl)propyl)morpholine], the half-maximal inhibitory concentration (IC50) in experiment [1] (Homo sapiens, PBMC, 72 h) is 0.28 µM; in experiment [2], 1.25 µM.
